Measured values published in ChEMBL document CHEMBL1201862, “PubChem BioAssay data set” (2004).
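Cells were grown in 96-well plates and exposed to each compound for 48 hours at five concentrations; endpoints were interpolated linearly between bracketing concentrations, or set to the highest concentration if not reached. GI50 marks 50% less growth.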 The source made the active and inactive calls. Cut-off read from the data, not from the text of the source: active = GI50 up to about 1.1 µM and inactive = higher.

Experiments:
Experiment in all cases: NCI-60 cell line screen, 48 h
A549 = system: A549
ACHN = system: ACHN
CCRF-CEM = system: CCRF-CEM
HCT-15 = system: HCT-15
HL-60 = system: HL-60
HOP-92 = system: HOP-92
IGROV-1 = system: IGROV-1
NCI-H460 = system: NCI-H460
NCI-H522 = system: NCI-H522
RPMI-8226 = system: RPMI-8226
SF-268 = system: SF-268
SF-295 = system: SF-295
SK-MEL-5 = system: SK-MEL-5
SR = system: SR
T47D = system: T47D
UACC-257 = system: UACC-257
UO-31 = system: UO-31
MCF7 = system: MCF7
MDA-MB-231 = system: MDA-MB-231
MDA-N = system: MDA-N

| Structure (SMILES) | GI50 (A549) | GI50 (ACHN) | GI50 (CCRF-CEM) | GI50 (HCT-15) | GI50 (HL-60) | GI50 (HOP-92) | GI50 (IGROV-1) | GI50 (NCI-H460) | GI50 (NCI-H522) | GI50 (RPMI-8226) | GI50 (SF-268) | GI50 (SF-295) | GI50 (SK-MEL-5) | GI50 (SR) | GI50 (T47D) | GI50 (UACC-257) | GI50 (UO-31) | GI50 (MCF7) | GI50 (MDA-MB-231) | GI50 (MDA-N) |
| --- | --- | --- | --- | --- | --- | --- | --- | --- | --- | --- | --- | --- | --- | --- | --- | --- | --- | --- | --- | --- |
| Cc1noc(NC(=O)Nc2ccccc2F)c1C#N | 26.1 µM (inactive) | 22.2 µM (inactive) | 70.6 µM (inactive) | 55.3 µM | 84.5 µM (inactive) | > 100 µM (inactive) | > 91.6 µM (inactive) | 6.55 µM (inactive) | 7.93 µM (inactive) | > 74.8 µM (inactive) | 12.4 µM (inactive) | 41.5 µM (inactive) | 45.7 µM (inactive) | 21.4 µM (inactive) | 18.3 µM (inactive) | 30.9 µM (inactive) | 0.918 µM (active) | – | – | – |
| Nn1c(CCCCCCCCc2nnc(COc3c(O)ccc4ccccc34)n2N)nnc1COc1c(O)ccc2ccccc12 | > 100 µM (inactive) | > 100 µM (inactive) | – | > 100 µM | – | > 100 µM (inactive) | > 100 µM (inactive) | 57.9 µM (inactive) | > 100 µM (inactive) | 63.1 µM (inactive) | > 100 µM (inactive) | > 100 µM (inactive) | > 100 µM (inactive) | – | – | > 100 µM (inactive) | > 100 µM (inactive) | > 100 µM (inactive) | > 100 µM (inactive) | > 100 µM (inactive) |
| Cc1ccc(NC(=O)C(=O)C2C(=O)C3=C(CC2(C)C)NC2C=CC=CC2S3)c(C)c1 (stereo unspecified) | > 100 µM (inactive) | > 100 µM (inactive) | > 100 µM (inactive) | > 100 µM | > 100 µM (inactive) | 38.1 µM (inactive) | 49.3 µM (inactive) | > 100 µM (inactive) | > 100 µM (inactive) | – | 36.8 µM (inactive) | > 100 µM (inactive) | 85.1 µM (inactive) | – | – | > 100 µM (inactive) | 48.2 µM (inactive) | > 100 µM (inactive) | 53.5 µM (inactive) | > 100 µM (inactive) |
| Clc1ccc2nc3[nH]nc(Cl)c3nc2c1 | 36.8 µM (inactive) | 52.8 µM (inactive) | – | > 100 µM | – | – | – | 40.1 µM (inactive) | – | 47.4 µM (inactive) | 47.9 µM (inactive) | 72.6 µM (inactive) | 27.1 µM (inactive) | – | 44.1 µM (inactive) | 66.8 µM (inactive) | 22.8 µM (inactive) | 59.8 µM (inactive) | 57.7 µM (inactive) | 76.9 µM (inactive) |
| CN1C(=O)c2ccccc2C(O)(c2ccccc2)C1(O)c1ccccc1 (stereo unspecified) | 69.5 µM (inactive) | > 100 µM (inactive) | > 100 µM (inactive) | > 100 µM | – | 14.4 µM (inactive) | 58.5 µM (inactive) | 19.2 µM (inactive) | > 100 µM (inactive) | 56.4 µM (inactive) | 55.5 µM (inactive) | > 100 µM (inactive) | 74.6 µM (inactive) | 43 µM (inactive) | 61.2 µM (inactive) | > 100 µM (inactive) | 32.5 µM (inactive) | – | > 100 µM (inactive) | > 100 µM (inactive) |
| CC(=O)NC1C(OCC(=O)NCCNc2ccc([N+](=O)[O-])c3[nH]c4ccccc4c(=O)c23)C(O)C(CO)OC1(C)OCc1ccccc1 (stereo unspecified) | > 100 µM (inactive) | > 100 µM (inactive) | > 100 µM (inactive) | > 100 µM | – | – | > 100 µM (inactive) | 50.4 µM (inactive) | > 100 µM (inactive) | > 100 µM (inactive) | > 100 µM (inactive) | > 100 µM (inactive) | > 100 µM (inactive) | – | > 100 µM (inactive) | > 100 µM (inactive) | > 100 µM (inactive) | > 100 µM (inactive) | > 100 µM (inactive) | > 100 µM (inactive) |
| CC(C)Oc1cccc(N2C(NCCc3c[nH]c4ccccc34)=Nc3ccncc3S2(=O)=O)c1 | 40.9 µM (inactive) | 35.5 µM (inactive) | 6.15 µM (inactive) | 4.98 µM | 3.93 µM (inactive) | 8.45 µM (inactive) | 41.7 µM (inactive) | 6.53 µM (inactive) | 7.01 µM (inactive) | 5.51 µM (inactive) | 15.7 µM (inactive) | 20.7 µM (inactive) | 9.59 µM (inactive) | 3.26 µM (inactive) | 7.21 µM (inactive) | 9.53 µM (inactive) | 81.8 µM (inactive) | 4.73 µM (inactive) | – | – |
| C/C(=C\COP(=O)(O)OP(=O)(O)O)CC/C=C(\C)CNc1ccc([N+](=O)[O-])cc1 | > 100 µM (inactive) | > 100 µM (inactive) | > 100 µM (inactive) | > 100 µM | > 100 µM (inactive) | > 100 µM (inactive) | > 100 µM (inactive) | > 100 µM (inactive) | > 100 µM (inactive) | > 100 µM (inactive) | > 100 µM (inactive) | > 100 µM (inactive) | > 100 µM (inactive) | > 100 µM (inactive) | > 100 µM (inactive) | 71.8 µM (inactive) | > 100 µM (inactive) | > 100 µM (inactive) | > 100 µM (inactive) | – |
| COCn1cnc2c(=O)n(-c3ccc(C)cc3)c(=S)n(-c3ccc(C)cc3)c21 | > 100 µM (inactive) | > 100 µM (inactive) | > 100 µM (inactive) | > 100 µM | > 100 µM (inactive) | 71.8 µM (inactive) | > 100 µM (inactive) | > 100 µM (inactive) | > 100 µM (inactive) | > 100 µM (inactive) | > 100 µM (inactive) | > 100 µM (inactive) | > 100 µM (inactive) | > 100 µM (inactive) | > 100 µM (inactive) | > 100 µM (inactive) | 38.6 µM (inactive) | > 100 µM (inactive) | > 100 µM (inactive) | – |
| O=C1CSCC(=O)Nc2ccccc2N1 | > 100 µM (inactive) | > 100 µM (inactive) | > 100 µM (inactive) | > 100 µM | > 100 µM (inactive) | > 100 µM (inactive) | > 100 µM (inactive) | > 100 µM (inactive) | > 100 µM (inactive) | > 100 µM (inactive) | > 100 µM (inactive) | > 100 µM (inactive) | > 100 µM (inactive) | > 100 µM (inactive) | > 100 µM (inactive) | > 100 µM (inactive) | > 100 µM (inactive) | – | > 100 µM (inactive) | > 100 µM (inactive) |
| CCOC(=O)c1c(NC(=O)OC)c(C#N)c2n1CCCCC2 | – | > 100 µM (inactive) | > 100 µM (inactive) | > 100 µM | > 100 µM (inactive) | 93.3 µM (inactive) | > 100 µM (inactive) | > 100 µM (inactive) | – | > 100 µM (inactive) | > 100 µM (inactive) | > 100 µM (inactive) | > 100 µM (inactive) | > 100 µM (inactive) | > 100 µM (inactive) | > 100 µM (inactive) | > 100 µM (inactive) | > 100 µM (inactive) | 35.7 µM (inactive) | – |
| COC(=O)[C@@]12CSC[C@]1(C(=O)OC)N[C@@H](c1ccccc1O)C2 | > 100 µM (inactive) | > 100 µM (inactive) | > 100 µM (inactive) | > 100 µM | > 100 µM (inactive) | > 100 µM (inactive) | > 100 µM (inactive) | > 100 µM (inactive) | > 100 µM (inactive) | > 100 µM (inactive) | > 100 µM (inactive) | > 100 µM (inactive) | > 100 µM (inactive) | > 100 µM (inactive) | > 100 µM (inactive) | > 100 µM (inactive) | > 100 µM (inactive) | > 100 µM (inactive) | – | > 100 µM (inactive) |
| COC1(CCO)CC=CCC1(CCO)OC (stereo unspecified) | > 100 µM (inactive) | > 100 µM (inactive) | > 100 µM (inactive) | > 100 µM | > 100 µM (inactive) | > 100 µM (inactive) | > 100 µM (inactive) | > 100 µM (inactive) | > 100 µM (inactive) | > 100 µM (inactive) | > 100 µM (inactive) | > 100 µM (inactive) | > 100 µM (inactive) | – | > 100 µM (inactive) | > 100 µM (inactive) | > 100 µM (inactive) | > 100 µM (inactive) | – | > 100 µM (inactive) |
| O=[N+]([O-])c1cc(/N=N/c2c(O)ccc3cc(S(=O)(=O)O)ccc23)c(O)c([N+](=O)[O-])c1 | > 100 µM (inactive) | > 100 µM (inactive) | 18.9 µM (inactive) | 51.8 µM | 11.1 µM (inactive) | > 100 µM (inactive) | > 100 µM (inactive) | – | > 100 µM (inactive) | > 100 µM (inactive) | > 100 µM (inactive) | 44.9 µM (inactive) | > 100 µM (inactive) | – | > 100 µM (inactive) | > 100 µM (inactive) | 39.4 µM (inactive) | – | > 100 µM (inactive) | > 100 µM (inactive) |
| COc1c(Br)cc(/C=C(\C#N)c2cccnc2)cc1Br | 53.1 µM (inactive) | 93.3 µM (inactive) | > 100 µM (inactive) | 33.5 µM | 36.2 µM (inactive) | 23.1 µM (inactive) | 63 µM (inactive) | 37.8 µM (inactive) | 42.1 µM (inactive) | > 100 µM (inactive) | 67.6 µM (inactive) | 52.7 µM (inactive) | 43.7 µM (inactive) | 29.5 µM (inactive) | – | > 100 µM (inactive) | > 100 µM (inactive) | 35.8 µM (inactive) | – | > 100 µM (inactive) |
| COc1c(O)cc(C(=O)O[C@@H]2Cc3c(O)cc(O)cc3O[C@@H]2c2cc(O)c(O)c(O)c2)cc1O | 23 µM (inactive) | 30.6 µM (inactive) | – | 26.5 µM | 19.7 µM (inactive) | > 100 µM (inactive) | 46.2 µM (inactive) | 24.5 µM (inactive) | 24.4 µM (inactive) | 24.3 µM (inactive) | 20.5 µM (inactive) | 20.3 µM (inactive) | 26.7 µM (inactive) | 18.7 µM (inactive) | 26.2 µM (inactive) | 53.3 µM (inactive) | 23 µM (inactive) | 20 µM (inactive) | – | 24.4 µM (inactive) |
